# Data as given in patent US20070208069A1, “PHARMACEUTICAL FORMULATIONS OF AN ANHYDROUS CRYSTAL FORM OF 2-(3-FLUORO-4-HYDROXYPHENYL)-7-VINYL-1,3-BENZOXAZOL-5-OL” (Wyeth, priority 2006, published 2007).
# Key:
# Format in all cases: physicochemical
# [1] = Solid-state stability of crystal forms (XRPD, TGA); settings: for Long term crystal form stability (XRPD, TGA): three months (monohydrate also 40° C. without humidity control)
# Procedure: […] At room temperature, humidity was maintained at 0% RH. Humidity was not controlled for the higher temperatures.
# The samples were analyzed by XRPD and TGA.
# (§1) Non-micronized samples of monohydrate and anhydrate were stored at 40° C./75% RH for three months. The monohydrate was also stored at 40° C. without humidity control. During the three months, the samples were checked after two weeks, one month, two months, and three months.
# [2] = Chemical stability on storage (HPLC); settings: non-micronized, 40° C./75% RH, three months
# Procedure: as §1
# [3] = Dynamic vapor sorption (hygroscopicity); settings: for DVS gain: 0–90% RH
# Source text: Dynamic Vapor Sorption (Allentown, Pa.) was used to measure the hygroscopicity of the anhydrate and monohydrate of the invention (see FIGS. 6 and 7). The step conditions were three hours each at 0%, 30%, 52.5%, 75% and 90% RH, two full cycles.
# [4] = Water solubility of the two crystal forms
"Crystal form stability (XRPD) ([1]; micronized, 25° C./60% RH, three months)","Crystal form stability (XRPD) ([1]; non-micronized, 40° C./75% RH)","Long term crystal form stability (XRPD, TGA) ([1]; non-micronized, 40° C./75% RH)",Long term chemical stability (HPLC) [2],"Hygroscopicity (DVS), in words [3]",DVS gain [3],"Medium term stability (XRPD, TGA) ([1]; 56° C., humidity not controlled, one week)","Medium term stability (XRPD, TGA) ([1]; 70° C., 1 day)","Medium term stability (XRPD, TGA) ([1]; 70° C., 4 days)","Medium term stability (XRPD, TGA) ([1]; 70° C., 7 days)","Short term stability (XRPD) ([1]; 70° C., one hour)","Short term stability (XRPD) ([1]; 90° C., one half hour)","Short term stability (XRPD) ([1]; 90° C., one hour)","Medium term stability (XRPD, TGA) ([1]; room temperature, 0% RH, one week)",Structure (SMILES),"Crystal form stability (XRPD) ([1]; micronized, 40° C./75% RH, one month)","Water solubility compared between forms, in words [4]"
did not transform to the monohydrate,did not show any obvious transformation,did not transform,chemically stable,largely non-hygroscopic,0.2% gain (0–90% RH),–,–,–,–,–,–,–,–,"C=Cc1cc(O)cc2nc(-c3ccc(O)c(F)c3)oc12 [Anhydrate, 2-(3-fluoro-4-hydroxyphenyl)-7-vinyl-1,3-benzoxazol-5-ol]",did partially transform to the monohydrate,–
–,–,did not transform,chemically stable,largely non-hygroscopic,0.1% gain (0–90% RH),no obvious dehydration,no obvious hydration,partially dehydrated,mostly dehydrated,stable,partially dehydrated,completely dehydrated,no obvious dehydration,"C=Cc1cc(O)cc2nc(-c3ccc(O)c(F)c3)oc12 [Monohydrate, 2-(3-fluoro-4-hydroxyphenyl)-7-vinyl-1,3-benzoxazol-5-ol]",–,significantly lower solubility than the anhydrate
